# Active and inactive are the calls of the source. The calls are words filed in the database; no cut-off is given here.
# Experiments:
# [1] = species: Mus musculus; test: Antiinflammatory activity against mouse infected with Candida albicans ATCC SC5314 assessed as reduction in MMP-9 expression in spleen by Western blot analysis; assay type: functional, organism-based
# [2] = Toxicity in mouse infected with Candida albicans assessed as spleen injury at 10 ug per 20 g, ip administered on day 2, 4, 6, 8, 10 and 12 and measured on day 14 by H and E staining based assay; assay type: organism-based; settings: in vivo, 336 h, dose 10 µg, time 14 day
# [3] = Toxicity in Candida albicans ATCC SC5314 infected-mouse assessed as effect on body weight at 10 ug per 20 g, ip administered on day 2, 4, 6, 8, 10 and 12 and measured on day 14; assay type: organism-based; settings: in vivo, 336 h, dose 10 µg, time 14 day
# [4] = biological target: T1, Prostaglandin G/H synthase 2 (Homo sapiens, UniProt P35354); test: Inhibition of COX-2 (unknown origin) using arachidonic acid as substrate preincubated for 10 mins followed by substrate addition and measured after 2 mins by immunoassay
# T1 sequence (P35354 whole entry): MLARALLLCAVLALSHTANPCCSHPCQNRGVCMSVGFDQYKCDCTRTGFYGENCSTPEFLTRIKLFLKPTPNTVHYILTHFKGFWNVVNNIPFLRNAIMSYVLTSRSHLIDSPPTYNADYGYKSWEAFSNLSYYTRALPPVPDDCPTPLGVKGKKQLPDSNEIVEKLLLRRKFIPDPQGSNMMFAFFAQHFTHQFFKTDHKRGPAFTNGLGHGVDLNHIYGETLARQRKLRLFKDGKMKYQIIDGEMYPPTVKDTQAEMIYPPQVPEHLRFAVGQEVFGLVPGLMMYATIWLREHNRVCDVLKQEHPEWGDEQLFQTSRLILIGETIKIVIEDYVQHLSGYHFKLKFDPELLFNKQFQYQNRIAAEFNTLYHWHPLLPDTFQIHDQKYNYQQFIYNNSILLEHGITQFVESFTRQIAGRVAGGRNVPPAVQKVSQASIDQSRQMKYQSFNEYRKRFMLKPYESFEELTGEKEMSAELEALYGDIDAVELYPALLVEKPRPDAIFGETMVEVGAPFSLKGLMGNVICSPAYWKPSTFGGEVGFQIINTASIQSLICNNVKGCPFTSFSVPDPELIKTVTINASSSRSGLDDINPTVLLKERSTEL
# [5] = Toxicity in mouse infected with Candida albicans assessed as lung injury at 10 ug per 20 g, ip administered on day 2, 4, 6, 8, 10 and 12 and measured on day 14 by H and E staining based assay; assay type: organism-based; settings: in vivo, 336 h, dose 10 µg, time 14 day
# [6] = species: Mus musculus; test: Antiinflammatory activity in mouse infected with Candida albicans ATCC SC5314 assessed as reduction in COX-2 expression in spleen by hematoxylin staining based inverted microscopic analysis (reference value: 83.52 a.u.); assay type: functional
# [7] = Toxicity in mouse infected with Candida albicans assessed as heart injury at 10 ug per 20 g, ip administered on day 2, 4, 6, 8, 10 and 12 and measured on day 14 by H and E staining based assay; assay type: organism-based; settings: in vivo, 336 h, dose 10 µg, time 14 day
# [8] = Toxicity in mouse infected with Candida albicans assessed as liver injury at 10 ug per 20 g, ip administered on day 2, 4, 6, 8, 10 and 12 and measured on day 14 by H and E staining based assay; assay type: organism-based; settings: in vivo, 336 h, dose 10 µg, time 14 day
# [9] = system: Candida albicans; test: Antifungal actvity against Candida albicans ATCC SC5314 infected in mouse assessed as shrinking of infection region at 10 ug per 20 g, ip administered on day 2, 4, 6, 8, 10 and 12 and measured on day 14; assay type: functional, organism-based; settings: dose 10.0 µg, time 14.0 day
# [10] = Toxicity in mouse infected with Candida albicans assessed as kidney injury at 10 ug per 20 g, ip administered on day 2, 4, 6, 8, 10 and 12 and measured on day 14 by H and E staining based assay; assay type: organism-based; settings: in vivo, 336 h, dose 10 µg, time 14 day
# [11] = species: Mus musculus; test: Antiinflammatory activity in mouse infected with Candida albicans ATCC SC5314 assessed as reduction in MMP-9 expression in spleen by hematoxylin staining based inverted microscopic analysis (reference value: 36.74 a.u.); assay type: functional
# [12] = species: Mus musculus; test: Antiinflammatory activity against mouse infected with Candida albicans ATCC SC5314 assessed as reduction in NLRP3 expression in spleen by Western blot analysis; assay type: functional, organism-based
# [13] = system: Candida albicans; test: Antifungal actvity against Candida albicans ATCC SC5314 infected in mouse assessed as reduction in infection at 10 ug per 20 g, ip administered on day 2, 4, 6, 8, 10 and 12 and measured on day 14; assay type: functional, organism-based; settings: time 14.0 day
# [14] = system: Candida albicans; test: Induction of morphological changes in Candida albicans ATCC SC5314 assessed as ribosome abscission measured for 48 to 72 hrs by transmission electron microscopic analysis; assay type: functional, organism-based; settings: time 48-72 hrs
# [15] = system: Candida albicans; test: Induction of morphological changes in Candida albicans ATCC SC5314 assessed as disappearance of nucleus measured for 48 to 72 hrs by transmission electron microscopic analysis; assay type: functional, organism-based; settings: time 48-72 hrs
# [16] = system: Candida albicans; test: Induction of morphological changes in Candida albicans ATCC SC5314 assessed as cell leakage measured for 96 hrs by transmission electron microscopic analysis; assay type: functional, organism-based
# [17] = system: Candida albicans; test: Antifungal activity against Candida albicans ATCC SC5314 assessed as induction of ROS production by measuring fluorescence intensity incubated for 12 hrs by KGT010-1 staining based fluorescence microscopy; assay type: functional, organism-based
# [18] = system: Candida albicans; test: Antifungal activity against Candida albicans ATCC SC5314 assessed as fungal growth inhibition measured after 72 hrs in presence of naproxen by double dilution method; assay type: functional
# [19] = Toxicity in mouse infected with Candida albicans assessed as AST level in plasma at 10 ug per 20 g, ip administered on day 2, 4, 6, 8, 10 and 12 and measured on day 14 in presence of naproxen (reference value: 74.9 +/- 6.7 IU/L); assay type: organism-based; settings: in vivo, 336 h, dose 10 µg, time 14 day
# [20] = system: Candida tropicalis; test: Antifungal activity against Candida tropicalis ATCC 1369 assessed as fungal growth inhibition measured after 72 hrs in presence of naproxen by double dilution method; assay type: functional
# [21] = system: Candida albicans; test: Antifungal activity against fluconazole- resistant Candida albicans 901 assessed as fungal growth inhibition measured after 72 hrs in presence of naproxen by double dilution method; assay type: functional
# [22] = Toxicity in Candida albicans ATCC SC5314 infected-mouse assessed as effect on body weight at 10 ug per 20 g, ip administered on day 2, 4, 6, 8, 10 and 12 and measured on day 14 in presence of naproxen; assay type: organism-based; settings: in vivo, 336 h, dose 10 µg, time 14 day
# [23] = system: Cryptococcus neoformans; test: Antifungal activity against Cryptococcus neoformans ZKCC 2209 assessed as fungal growth inhibition measured after 72 hrs in presence of naproxen by double dilution method; assay type: functional
# [24] = species: Mus musculus; test: Antiinflammatory activity against mouse infected with Candida albicans ATCC SC5314 assessed as reduction in COX-2 expression in spleen in presence of naproxen by Western blot analysis; assay type: functional; set-up: scale not given: the % may be the effect or the level left
# [25] = species: Mus musculus; test: Antiinflammatory activity in mouse infected with Candida albicans ATCC SC5314 assessed as reduction in COX-2 expression in spleen in presence of naproxen by hematoxylin staining based inverted microscopic analysis; assay type: functional
# [26] = system: Candida albicans; test: Antifungal activity against fluconazole- resistant Candida albicans 632 assessed as fungal growth inhibition measured after 72 hrs in presence of naproxen by double dilution method; assay type: functional
# [27] = system: Candida albicans; test: Antifungal activity against fluconazole- resistant Candida albicans 17# assessed as fungal growth inhibition measured after 72 hrs in presence of naproxen by double dilution method; assay type: functional
SMILES,Activity [1],Activity [2],Activity [3],IC50 [4] [nM],Activity [5],Activity [6] [a.u.],Activity [7],Activity [8],Activity [9],Activity [10],Activity [11] [a.u.],Activity [12],Activity [13],Activity [17],other results
COc1ccc2cc([C@H](C)C(=O)NC(Cn3cncn3)C(=O)c3ccccc3)ccc2c1 (stereo partly specified),Active,Non-Toxic,Non-Toxic,1960,Non-Toxic,20.15,Non-Toxic,Non-Toxic,Active,Non-Toxic,12.13,Active,Active,,Activity [14]: Active; Activity [15]: Active; Activity [16]: Active
CC(C)NC(=O)[C@@H](Cn1ccnc1)NC(=O)[C@@H](C)c1cccc(C(=O)c2ccccc2)c1,Active,,Non-Toxic,3020,,20.15,,,Active,,12.13,Active,,Active,
OC(Cn1cncn1)(Cn1cncn1)c1ccc(F)cc1F [FLUCONAZOLE],,Non-Toxic,,,Non-Toxic,,Non-Toxic,Non-Toxic,,Non-Toxic,,,Active,Active,MIC50 [18]: 0.25 µg/mL; Activity [19]: 76.4 IU/L; MIC50 [20]: 0.5 µg/mL; MIC50 [21]: 4 µg/mL; Activity [22]: Non-Toxic; MIC50 [23]: 0.25 µg/mL; Activity [24]: 39.43%; Activity [25]: 55.7 a.u.; MIC50 [26]: 4 µg/mL; MIC50 [27]: 4 µg/mL
